Measured values published in patent publication US20150246898A1, “METALLOENZYME INHIBITOR COMPOUNDS” (DOW AGROSCIENCES LLC, priority 2012, published 2015).
≈ marks a conversion by molar mass, not a printed value.

What was measured:
[1] = tested on: Septoria tritici (ATCC 26517); assay: Minimum Inhibitory Concentration (MIC) vs. Septoria tritici, CLSI-based microdilution; format: cell-based; conditions: Zymoseptoria tritici, ATCC26517, 168 h; MIC = 50% reduction in growth of S. tritici, 7 days at 22 °C, RPMI/MOPS, 1% DMSO; read-out: Septoria Rating (MIC)
Procedure: Compounds of the present disclosure were assessed for their ability to inhibit the growth of a common strain of the fungal plant pathogen Septoria tritici (ATCC 26517) using a procedure based on a Clinical and Laboratory Standards Institute (CLSI) microdilution assay protocol for filamentous fungi. Stock solutions of the test compounds and standards were prepared in DMSO at 6400 μg/mL. Each stock solution was used to prepare a 2-fold dilution series ranging from 16 to 0.016 μg/mL (total of 11 compound concentrations) in RPMI-1640 (Roswell Park Memorial Institute) medium containing 3-(N-morpholino)propanesulfonic acid (MOPS) buffer and 2% DMSO. A 100 μL aliquot of the dilutions was added to columns 1 (16 μg/mL compound) through 11 (0.016 μg/mL compound) of a 96-well microtiter plate. This format was replicated in a second row of the microtiter plate. Thus, each microtiter plate could include 11 concentrations of four test or control compounds replicated twice. A 100 μL aliquot of RPMI-1640/MOPS/2% DMSO medium was added to column 12 (no compound control) of the microtiter plate. A fresh culture of S. tritici was used to prepare a solution of approximately 5×10^4 colony-forming units per milliliter (cfu/mL) in RPMI/MOPS medium without DMSO. A 100 μL aliquot of this solution was added to all 96 wells in the microtiter plate. […] In each case of Table 3 the Septoria rating scale is as follows: […]

[2] = tested on: Puccinia recondita tritici = Puccinia triticina (PUCCRT); assay: Fungicidal activity vs. leaf rust on wheat plants (1-day protectant spray); format: in vivo; conditions: wheat (variety Yuma) sprayed at 50 ppm, inoculated next day, disease severity evaluated 7-9 days later, read-out: Puccinia Rating (% Disease Control @ 50 ppm)
Description: Each pot contained 3-8 seedlings. These plants were sprayed until wet with the formulated test compounds. The compounds were formulated at 50 ppm in 10 vol. % acetone plus 90 vol. % Triton X water (deionized water 99.99 wt %+0.01 wt % Triton X100), giving a “formulated test compound.” Formulated test compounds were applied to plants using a turn table sprayer fitted with two opposing air atomization nozzles which delivered approximately 1500 L/ha of spray volume. On the following day, the leaves were inoculated with an aqueous spore suspension of Puccinia recondita tritici and the plants were kept in high humidity overnight to permit spores to germinate and infect the leaf. The plants were then transferred to a greenhouse until disease developed on untreated control plants. Disease severity was evaluated 7-9 days later, depending on the speed of disease development. In each case of Table 3, the Puccinia rating scale is as follows: […]

| MIC [1] [µg/mL] | Structure (SMILES) | pest or weed control at 50 ppm [2] [%] |
| --- | --- | --- |
| > 4 | N#Cc1ccc(-c2ccc(C(F)(F)C(O)(c3cncnc3)c3ccc(F)cc3F)nc2)cc1 (racemic) [Example 4, 4-(6-(2-(2,4-difluorophenyl)-1,1-difluoro-2-hydroxy-2-(pyrimidin-5-yl)ethyl)pyridin-3-yl)benzonitrile] | – |
| ≤ 0.5 | N#Cc1ccc(C#Cc2ccc(C(F)(F)C(O)(c3cncnc3)c3ccc(F)cc3F)nc2)cc1 (racemic) [Example 5, 4-((6-(2-(2,4-difluorophenyl)-1,1-difluoro-2-hydroxy-2-(pyrimidin-5-yl)ethyl)pyridin-3-yl)ethynyl)benzonitrile] | 80 to 100 |
| ≤ 0.5 | CNc1ccc(C#Cc2ccc(C(F)(F)C(O)(c3cncnc3)c3ccc(F)cc3F)nc2)cc1 (racemic) [Example 7, 1-(2,4-difluorophenyl)-2,2-difluoro-2-(5-((4-(methylamino)phenyl)ethynyl)pyridin-2-yl)-1-(pyrimidin-5-yl)ethanol] | < 40 |
| ≤ 0.5 | N#Cc1ccc(C#Cc2ccc(C(F)(F)C(O)(c3cncnc3)c3ccc(F)cc3F)nc2)cc1F (racemic) [Example 11] | 80 to 100 |
| ≤ 0.5 | N#Cc1ccc(C#Cc2ccc(C(F)(F)C(O)(c3cncnc3)c3ccc(F)cc3F)nc2)c(F)c1 (racemic) [Example 12, 4-((6-(2-(2,4-Difluorophenyl)-1,1-difluoro-2-hydroxy-2-(pyrimidin-5-yl)ethyl)pyridin-3-yl)ethynyl)-3-fluorobenzonitrile] | 80 to 100 |
| ≤ 0.5 | OC(c1cncnc1)(c1ccc(F)cc1F)C(F)(F)c1ccc(C#Cc2ccc(Cl)cc2)cn1 (racemic) [Example 13] | 80 to 100 |
| ≤ 0.5 | OC(c1cncnc1)(c1ccc(F)cc1F)C(F)(F)c1ccc(C#Cc2ccc(OC(F)(F)F)cc2)cn1 (racemic) [Example 14] | 80 to 100 |
| ≤ 0.5 | COc1ccc(C#Cc2ccc(C(F)(F)C(O)(c3cncnc3)c3ccc(F)cc3F)nc2)cc1 (racemic) [Example 15] | 60 to 79 |
| 0.5 to 1.5 (≈ 1.05 to 3.16 µM) | N#Cc1ccc(C#Cc2ccc(C(F)(F)C(O)(c3cncnc3)c3ccc(F)cc3F)nc2)cn1 (racemic) [Example 17] | – |
| ≤ 0.5 | Oc1ccc(C#Cc2ccc(C(F)(F)C(O)(c3cncnc3)c3ccc(F)cc3F)nc2)cc1 (racemic) [Example 19, 4-((6-(2-(2,4-Difluorophenyl)-1,1-difluoro-2-hydroxy-2-(pyrimidin-5-yl)ethyl)pyridin-3-yl)ethynyl)phenol] | – |
| 1.5 to 4 (≈ 3.03 to 8.07 µM) | CSc1ccc(C#Cc2ccc(C(F)(F)C(O)(c3cncnc3)c3ccc(F)cc3F)nc2)cc1 (racemic) [Example 22] | – |
| 1.5 to 4 (≈ 3.05 to 8.12 µM) | O/N=C/c1ccc(C#Cc2ccc(C(F)(F)C(O)(c3cncnc3)c3ccc(F)cc3F)nc2)cc1 (racemic) [Example 23] | – |
| > 4 | OC(c1cccnn1)(c1ccc(F)cc1F)C(F)(F)c1ccc(C#Cc2ccc(F)cc2)cn1 (racemic) [Example 24] | – |
| > 4 | OC(c1c[nH]nn1)(c1ccc(F)cc1F)C(F)(F)c1ccc(C#Cc2ccc(F)cc2)cn1 (racemic) [Example 26] | – |
| 1.5 to 4 (≈ 3.18 to 8.47 µM) | OC(c1cncs1)(c1ccc(F)cc1F)C(F)(F)c1ccc(C#Cc2ccc(F)cc2)cn1 (racemic) [Example 28] | – |
| > 4 | OC(c1cnco1)(c1ccc(F)cc1F)C(F)(F)c1ccc(C#Cc2ccc(F)cc2)cn1 (racemic) [Example 29] | – |
| 1.5 to 4 (≈ 3.29 to 8.78 µM) | OC(c1cc[nH]n1)(c1ccc(F)cc1F)C(F)(F)c1ccc(C#Cc2ccc(F)cc2)cn1 (racemic) [Example 30] | – |
| 0.5 to 1.5 (≈ 1.05 to 3.14 µM) | O=Cc1ccc(C#Cc2ccc(C(F)(F)C(O)(c3cncnc3)c3ccc(F)cc3F)nc2)cc1 (racemic) [Example 31] | – |
| ≤ 0.5 | OC(c1cncnc1)(c1ccc(F)cc1F)C(F)(F)c1ccc(C#Cc2ccc(NCC(F)(F)F)cc2)cn1 (racemic) [Example 36] | – |
| > 4 | N#Cc1ccc(C#Cc2ccc(C(F)(F)C(O)(c3ccc(F)cc3)c3cncnc3)nc2)cc1 (racemic) [Example 44] | – |
| 0.5 to 1.5 (≈ 1.04 to 3.12 µM) | N#Cc1ccc(COc2ccc(C(F)(F)C(O)(c3cncnc3)c3ccc(F)cc3F)nc2)cc1 (racemic) [Example 56] | – |

Continued, compound first:

| Structure (SMILES) | MIC [1] [µg/mL] | pest or weed control at 50 ppm [2] [%] |
| --- | --- | --- |
| OC(c1cncnc1)(c1ccc(F)cc1F)C(F)(F)c1ccc(-c2ccc(OC(F)(F)F)cc2)cn1 (racemic) [Example 3, 1-(2,4-difluorophenyl)-2,2-difluoro-1-(pyrimidin-5-yl)-2-(5-(4-(trifluoromethoxy)phenyl)pyridin-2-yl)ethanol] | 0.5 to 1.5 (≈ 0.982 to 2.94 µM) | < 40 |
| OC(c1cncnc1)(c1ccc(F)cc1F)C(F)(F)c1ccc(C#CCOCC(F)(F)F)cn1 (racemic) [Example 6, 1-(2,4-difluorophenyl)-2,2-difluoro-1-(pyrimidin-5-yl)-2-(5-(3-(2,2,2-trifluoroethoxy)prop-1-ynyl)pyridin-2-yl)ethanol] | > 4 | – |
| OCC#Cc1ccc(C(F)(F)C(O)(c2cncnc2)c2ccc(F)cc2F)nc1 (racemic) [Example 8, 3-(6-(2-(2,4-difluorophenyl)-1,1-difluoro-2-hydroxy-2-(pyrimidin-5-yl)ethyl)pyridin-3-yl)prop-2-yn-1-ol] | 0.5 to 1.5 (≈ 1.24 to 3.72 µM) | 80 to 100 |
| OC(c1cncnc1)(c1ccc(F)cc1F)C(F)(F)c1ccc(OCc2ccc(Cl)cc2F)cn1 (racemic) [Example 10] | ≤ 0.5 | 80 to 100 |
| OC(c1cnccn1)(c1ccc(F)cc1F)C(F)(F)c1ccc(C#Cc2ccc(F)cc2)cn1 (racemic) [Example 25] | – | < 40 |
| N#Cc1ccc(CCc2ccc(C(F)(F)C(O)(c3cncnc3)c3ccc(F)cc3F)nc2)cc1 (racemic) [Example 32] | ≤ 0.5 | – |
| CNc1ccc(CCc2ccc(C(F)(F)C(O)(c3cncnc3)c3ccc(F)cc3F)nc2)cc1 (racemic) [Example 33] | ≤ 0.5 | – |
| OC(c1cncnc1)(c1ccc(F)cc1F)C(F)(F)c1ccc(Oc2ccc(Cl)cc2)cn1 (racemic) [Example 40] | > 4 | – |
| CCCC(O)(c1cncnc1)C(F)(F)c1ccc(C#Cc2ccc(C#N)cc2)cn1 (racemic) [Example 45] | 1.5 to 4 (≈ 3.71 to 9.89 µM) | – |
| CCC(O)(c1cncnc1)C(F)(F)c1ccc(C#Cc2ccc(C#N)cc2)cn1 (racemic) [Example 46] | 1.5 to 4 (≈ 3.84 to 10.2 µM) | – |
| COc1ccc(COc2ccc(C(F)(F)C(O)(c3cncnc3)c3ccc(F)cc3F)nc2)cc1 (racemic) [Example 49] | 0.5 to 1.5 (≈ 1.03 to 3.09 µM) | – |
| CC(C)C(O)(c1cncnc1)C(F)(F)c1ccc(OCc2ccc(Cl)cc2F)cn1 (racemic) [Example 50] | 1.5 to 4 (≈ 3.43 to 9.14 µM) | – |
| CC(C)C(O)(c1cncnc1)C(F)(F)c1ccc(OCc2ccc(Cl)cc2)cn1 (racemic) [Example 53] | 0.5 to 1.5 (≈ 1.19 to 3.57 µM) | – |
| OC(c1cncnc1)(c1ccc(F)cc1F)C(F)(F)c1ccc(OCc2ccc(C(F)F)cc2)cn1 (racemic) [Example 54] | > 4 | – |
| CC(C)C(O)(c1cncnc1)C(F)(F)c1ccc(OCc2ccc(C#N)cc2)cn1 (racemic) [Example 57] | > 4 | – |
| O=[N+]([O-])c1ccc(COc2ccc(C(F)(F)C(O)(c3cncnc3)c3ccc(F)cc3F)nc2)cc1 (racemic) [Example 58] | 1.5 to 4 (≈ 3 to 7.99 µM) | – |
| OC(c1cncnc1)(c1ccc(F)cc1F)C(F)(F)c1ccc(OCc2cccc(Cl)c2)cn1 (racemic) [Example 59] | 0.5 to 1.5 (≈ 1.02 to 3.06 µM) | – |
| CC(C)C(O)(c1cncnc1)C(F)(F)c1ccc(C#Cc2ccc(F)cc2)cn1 (racemic) [Example 63] | 0.5 to 1.5 (≈ 1.26 to 3.77 µM) | – |
| N#Cc1cccc(C#Cc2ccc(C(F)(F)C(O)(c3ccc(Cl)cc3)c3cncnc3)nc2)c1 (racemic) [Example 66] | 0.5 to 1.5 (≈ 1.06 to 3.17 µM) | – |
| N#Cc1ccc(COc2ccc(C(F)(F)C(O)(c3cncnc3)c3ccc(F)cc3F)nc2)c(F)c1 (racemic) [Example 68] | – | 80 to 100 |
| OC(c1cncnc1)(C(F)(F)F)C(F)(F)c1ccc(-c2ccc(Cl)cc2)cn1 (racemic) [Example 71, 1-(5-(4-Chlorophenyl)pyridin-2-yl)-1,1,3,3,3-pentafluoro-2-(pyrimidin-5-yl)propan-2-ol] | ≤ 0.5 | – |
| OC(c1ccc(Cl)cc1)(c1cncnc1)C(F)(F)c1ccc(Oc2cccc(Cl)c2)cn1 (stereo not drawn) [Example 61] | 1.5 to 4 (≈ 3.16 to 8.43 µM) | – |
| OC(c1ccc(Cl)cc1)(c1cncnc1)C(F)(F)c1ccc(OCc2ccc(Cl)cc2)cn1 (stereo not drawn) [Example 69] | – | < 40 |
